The text below walks through data of patent US9399646B2 (Genentech, Inc., priority 2010, dated 2016).

The test system of one experiment is MCF-7 cells. The experiment is described as follows: Breast cancer cell viability assay (CellTiter-Glo, 5 days). In kind it is cell-based. The following applies: 5 days' compound exposure; for IC50: Homo sapiens, MCF7, 120 h. In short, it runs like this:
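MCF-7 cells, 320 per well in RPMI with 10% FBS and 20 mM HEPES, adhered overnight, then exposed 5 days to an eleven-point semilog dilution (final 0.3-0.000003 μM). CellTiter-Glo luminescence read; % viability = (sample − cell-free background)/(untreated − background) × 100.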
(In ATP-based viability assays light output follows the ATP content of the culture.)

A further experiment concerns the target T1, ER-α in MCF-7 cells (Homo sapiens, UniProt P03372).
T1 sequence (P03372 1-595): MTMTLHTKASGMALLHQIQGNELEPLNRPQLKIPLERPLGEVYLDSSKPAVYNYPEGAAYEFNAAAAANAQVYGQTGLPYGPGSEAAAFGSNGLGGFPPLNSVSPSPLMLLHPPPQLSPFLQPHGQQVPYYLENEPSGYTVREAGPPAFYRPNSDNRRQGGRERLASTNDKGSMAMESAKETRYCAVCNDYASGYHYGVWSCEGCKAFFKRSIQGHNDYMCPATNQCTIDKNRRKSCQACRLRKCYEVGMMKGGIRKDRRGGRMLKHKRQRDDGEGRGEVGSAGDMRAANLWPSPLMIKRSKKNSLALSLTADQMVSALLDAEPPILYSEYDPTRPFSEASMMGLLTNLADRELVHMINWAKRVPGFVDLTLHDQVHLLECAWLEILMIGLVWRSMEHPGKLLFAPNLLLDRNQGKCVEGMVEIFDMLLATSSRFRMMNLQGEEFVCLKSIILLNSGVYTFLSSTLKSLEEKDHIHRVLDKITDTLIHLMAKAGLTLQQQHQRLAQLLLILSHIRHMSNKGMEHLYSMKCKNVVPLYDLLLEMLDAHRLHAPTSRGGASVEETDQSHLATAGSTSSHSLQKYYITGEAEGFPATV
The experiment is described as follows: Breast cancer cell ER-α in cell western assay (SP1). In kind it is cell-based. Also on record: endogenous in cells; host or cells: MCF-7. Particulars: 4 or 24 hr post compound addition; for Emax: MCF7, SP1 antibody, read-out: ER-α In Cell Western Assay (SP1) Max Response; for DC50: SP1 antibody, read-out: ER-α In Cell Western Assay (SP1) IC50. In short, it runs like this: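 Fixed cells were immunostained with SP1 anti-ER antibody; ER signal (800 nm) was normalized to DRAQ5 DNA signal (700 nm) and expressed as % of untreated cells.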

On to `CC/C(=C(/c1ccc(/C=C/C(=O)O)cc1)c1ccc2nsnc2c1)c1ccccc1` [Compound 144, (E)-3-(4-((E)-1-(Benzo[c][1,2,5]thiadiazol-5-yl)-2-phenylbut-1-en-1-yl)phenyl)acrylic acid], for which, in the experiment on MCF-7 cells, the “MCF7 Viability Assay Max Response” value is “++ (++ = a single % value ≧ 40%)” and the IC50 (commonly the midpoint of a concentration-inhibition curve) is more than 100 nM. In addition, on ER-α in MCF-7 cells, the Emax is not below 40% and the DC50 was more than 100 nM.
`O=C(O)/C=C/c1ccc(/C(=C(\c2ccc(F)cc2Cl)C2CC2)c2cccc3[nH]ncc23)cc1` [Compound 73, (E)-3-(4-((E)-2-(2-Chloro-4-fluorophenyl)-2-cyclopropyl-1-(1H-indazol-4-yl)vinyl)phenyl)acrylic acid]: in the experiment on MCF-7 cells, the “MCF7 Viability Assay Max Response” value was “++ (++ = a single % value ≧ 40%)” and the concentration for half-maximal inhibition (IC50) is not above 100 nM. On ER-α in MCF-7 cells, the Emax was not below 40% and the DC50 is not above 100 nM.
For the compound `CC/C(=C(/c1ccc(/C=C/C(=O)O)cc1)c1ccc2[nH]ncc2c1)c1ccc(Oc2cnccn2)cc1` [Compound 293, (E)-3-(4-((E)-1-(1H-Indazol-5-yl)-2-(4-(pyrazin-2-yloxy)phenyl)but-1-en-1-yl)phenyl)acrylic acid], in the experiment on MCF-7 cells, the “MCF7 Viability Assay Max Response” value is listed as “++ (++ = a single % value ≧ 40%)” and the concentration for half-maximal inhibition (IC50) was not above 100 nM. Besides, on ER-α in MCF-7 cells, the Emax is not below 40% and the DC50 was not above 100 nM.
Take `CC/C(=C(/c1ccc(/C=C/C(=O)O)cc1)c1ccc2[nH]ncc2c1)c1cccc(OCCCOC)c1` [Compound 342, (E)-3-(4-((E)-1-(1H-Indazol-5-yl)-2-(3-(3-methoxypropoxy)phenyl)but-1-en-1-yl)phenyl)acrylic acid]: in the experiment on MCF-7 cells, the “MCF7 Viability Assay Max Response” value is reported as “++ (++ = a single % value ≧ 40%)” and the half-inhibitory concentration (IC50) is not above 100 nM. At ER-α in MCF-7 cells, the Emax was not below 40% and the DC50 is not above 100 nM.
For `CC/C(=C(/c1ccc(/C=C/C(=O)O)cc1)c1ccc2[nH]ncc2c1)c1ccncc1C#N` [Compound 303, (E)-3-(4-((E)-2-(3-Cyanopyridin-4-yl)-1-(1H-indazol-5-yl)but-1-en-1-yl)phenyl)acrylic acid], in the experiment on MCF-7 cells, the “MCF7 Viability Assay Max Response” value is listed as “++ (++ = a single % value ≧ 40%)” and the concentration for half-maximal inhibition (IC50) was more than 100 nM. Also, on ER-α in MCF-7 cells, the Emax was not below 40% and the DC50 is more than 100 nM.
As to `CC/C(=C(/c1ccc(/C=C/C(=O)O)cc1)c1ccc2[nH]ncc2c1)c1ccc2sncc2c1` [Compound 314, (E)-3-(4-((E)-2-(Benzo[d]isothiazol-5-yl)-1-(1H-indazol-5-yl)but-1-en-1-yl)phenyl)acrylic acid], in the experiment on MCF-7 cells, the “MCF7 Viability Assay Max Response” value was “++ (++ = a single % value ≧ 40%)” and the half-maximal inhibitory concentration (IC50) was not above 100 nM. Moreover, at ER-α in MCF-7 cells, the Emax is not below 40% and the DC50 was not above 100 nM.
On to `Cc1cscc1/C(=C(\c1ccc(/C=C/C(=O)O)cc1)c1ccc2[nH]ncc2c1)C(C)C` [Compound 154, (E)-3-(4-((E)-1-(1H-Indazol-5-yl)-3-methyl-2-(4-methylthiophen-3-yl)but-1-en-1-yl)phenyl)acrylic acid], for which, in the experiment with MCF-7 cells, the “MCF7 Viability Assay Max Response” value is listed as “++ (++ = a single % value ≧ 40%)” and the IC50 is not above 100 nM. In addition, at ER-α in MCF-7 cells, the Emax is not below 40% and the DC50 was not above 100 nM.
In the case of `CC/C(=C(/c1ccc(/C=C/C(=O)O)cc1)c1ccc2[nH]ncc2c1)c1cnccc1C(F)(F)F` [Compound 207, (E)-3-(4-((E)-1-(1H-Indazol-5-yl)-2-(4-(trifluoromethyl)pyridin-3-yl)but-1-en-1-yl)phenyl)acrylic acid], in the experiment with MCF-7 cells, the “MCF7 Viability Assay Max Response” value is “++ (++ = a single % value ≧ 40%)” and the IC50 is not above 100 nM. On ER-α in MCF-7 cells, the Emax is not below 40% and the DC50 is not above 100 nM.
On to `CC/C(=C(/c1ccc(/C=C/C(=O)O)cc1)c1ccc2c(c1)CNC2=O)c1ccc(F)cc1Cl` [Compound 287, (E)-3-(4-((E)-2-(2-Chloro-4-fluorophenyl)-1-(1-oxoisoindolin-5-yl)but-1-en-1-yl)phenyl)acrylic acid], for which, in the experiment on MCF-7 cells, the “MCF7 Viability Assay Max Response” value is “++ (++ = a single % value ≧ 40%)” and the IC50 is not above 100 nM. Also, at ER-α in MCF-7 cells, the Emax is not below 40% and the DC50 was not above 100 nM.
`CC/C(=C(/c1ccc(/C=C/C(=O)N(C)OC)cc1)c1ccc2[nH]ncc2c1)c1ccc(F)cc1Cl` [Compound 422, (E)-3-(4-((E)-2-(2-Chloro-4-fluorophenyl)-1-(1H-indazol-5-yl)but-1-en-1-yl)phenyl)-N-methoxy-N-methylacrylamide]: in the experiment on MCF-7 cells, the “MCF7 Viability Assay Max Response” value was “++ (++ = a single % value ≧ 40%)” and the half-maximal inhibitory concentration (IC50) was not above 100 nM. Also, on ER-α in MCF-7 cells, the Emax was not below 40% and the DC50 was not above 100 nM.
For `CC/C(=C(/c1ccc(/C=C/c2noc(=S)[nH]2)cc1)c1ccc2[nH]ncc2c1)c1ccc(F)cc1Cl` [Compound 441, 3-((E)-4-((E)-2-(2-Chloro-4-fluorophenyl)-1-(1H-indazol-5-yl)but-1-en-1-yl)styryl)-1,2,4-oxadiazole-5(4H)-thione], in the experiment on MCF-7 cells, the “MCF7 Viability Assay Max Response” value was “+ (+ = a single % value < 40%)” and the IC50 is not above 100 nM. Moreover, on ER-α in MCF-7 cells, the Emax was not below 40% and the DC50 is not above 100 nM.
Take `CC/C(=C(/c1ccc(/C=C/C(=O)O)cc1)c1ccc2[nH]ncc2c1)c1ccc(Oc2ccccc2)cc1C` [Compound 319, (E)-3-(4-((E)-1-(1H-Indazol-5-yl)-2-(2-methyl-4-phenoxyphenyl)but-1-en-1-yl)phenyl)acrylic acid]: in the experiment with MCF-7 cells, the “MCF7 Viability Assay Max Response” value is recorded as “++ (++ = a single % value ≧ 40%)” and the half-inhibitory concentration (IC50) was not above 100 nM. Besides, at ER-α in MCF-7 cells, the Emax is not below 40% and the DC50 was not above 100 nM.
With `CC/C(=C(/c1ccc(/C=C/C(=O)O)cc1)c1ccc2ncsc2c1)c1ccccc1` [Compound 130, (E)-3-(4-((E)-1-(Benzo[d]thiazol-6-yl)-2-phenylbut-1-en-1-yl)phenyl)acrylic acid], in the experiment on MCF-7 cells, the “MCF7 Viability Assay Max Response” value is “++ (++ = a single % value ≧ 40%)” and the half-maximal inhibitory concentration (IC50) was more than 100 nM. On ER-α in MCF-7 cells, the Emax is not below 40% and the DC50 is more than 100 nM.
With `CC/C(=C(/c1ccc(/C=C/C(=O)O)cc1)c1ccc2[nH]ncc2c1)c1ccc(C(=O)NC)cc1F` [Compound 213, (E)-3-(4-((E)-2-(2-Fluoro-4-(methylcarbamoyl)phenyl)-1-(1H-indazol-5-yl)but-1-en-1-yl)phenyl)acrylic acid], in the experiment with MCF-7 cells, the “MCF7 Viability Assay Max Response” value was “+ (+ = a single % value < 40%)” and the IC50 is more than 100 nM. Also, at ER-α in MCF-7 cells, the Emax was not below 40% and the DC50 was more than 100 nM.
Turning to `CC/C(=C(/c1ccc(/C=C/C(=O)O)cc1)c1ccc2[nH]ncc2c1)c1ccc2ncsc2c1` [Compound 259, (E)-3-(4-((E)-2-(Benzo[d]thiazol-6-yl)-1-(1H-indazol-5-yl)but-1-en-1-yl)phenyl)acrylic acid], in the experiment on MCF-7 cells, the “MCF7 Viability Assay Max Response” value is recorded as “++ (++ = a single % value ≧ 40%)” and the IC50 is not above 100 nM. At ER-α in MCF-7 cells, the Emax is not below 40% and the DC50 was not above 100 nM.
In the case of `CC/C(=C(/c1ccc(/C=C/c2nn[nH]n2)cc1)c1ccc2scnc2c1)c1ccc(F)cc1Cl` [Compound 445, 5-((E)-1-(4-((E)-2-(2H-Tetrazol-5-yl)vinyl)phenyl)-2-(2-chloro-4-fluorophenyl)but-1-en-1-yl)benzo[d]thiazole], in the experiment on MCF-7 cells, the “MCF7 Viability Assay Max Response” value is reported as “++ (++ = a single % value ≧ 40%)” and the concentration for half-maximal inhibition (IC50) was not above 100 nM. Besides, at ER-α in MCF-7 cells, the Emax is not below 40% and the DC50 is not above 100 nM.
